Laboratory results: patent publication US12012408B2, “Purine compounds and method for the treatment of cancer” (THE ROYAL INSTITUTION FOR THE ADVANCEMENT OF …, priority 2018, dated 2024)

Key:
[1] = tested on: cleaved-PARP, cleaved-caspase 3, Bcl-2 in MDA-MB-231 and BT-20 cells; assay: Western blot of indicators of apoptosis; assay type: cell-based; conditions: FIG. 6B
Description: Sub-confluent cells were washed with PBS, lysed in RIPA buffer (50 mM Tris-HCl at pH7.5, 150 mM sodium chloride, 1% tritonX-100, 0.1% SDS, 2 mM EDTA and 25 mM sodium fluoride) supplemented with 1 mM PMSF and protease inhibitor cocktail (Roche) for 10 min on ice and centrifuged (13,000 rpm at 4° C. for 20 min) to separate cell lysate. Cell lysate (50 μg protein, as measured by the Bradford protein assay) was then added with SDS sample buffer (Tris at pH 6.8, 20% glycerol, 5% SDS, bromophenol blue and β-mercaptoethanol) and boiled for 5 min. Samples were then resolved through 13% SDS-PAGE gels, transferred to nitrocellulose membrane, blotted with specific first antibodies at different dilution in cold room overnight, and then amplified with horseradish peroxidase-conjugated secondary antibodies for 1 hour in room temperature and enhanced by chemiluminescence detection system.
Considering apoptosis is the major form of cell death induced by chemotherapeutic agent, we seek to identify whether the anticancer effect of SLLN-15 was mediated via apoptosis in breast cancer cells.

[2] = tested on: MDA-MB-231 and BT-20 cells; assay: MTT assay (short-term cell viability); assay type: cell-based; conditions: time-dependent, SLLN-15 compared with vorinostat; FIG. 6A
Description: The short-term effects of SLLN-15 on tumor cell growth were assessed using the 3-(4,5-dimethylthiazol-2-yl)-2,5-diphenylte-trazolium bromide (MTT; Sigma) assay. Cells were seeded at a density of 5000 cells/well in a 96-well plate and treated with SLLN-15 as indicated concentration or DMSO for 24 hours. MTT solution (5 mg/ml in RPMI 1640 medium) was added (20 μl/well), and plates were incubated for 4 hours in dark at 37° C., then the purple formazan crystals were then dissolved in 100 μl MTT solvent (4 mM HCl and 0.1% NP-40 in isopropanol). The plates were read on FLUOstar OPTIMA microplate reader (BMG Labtech, Ortenberg, Germany) at 570 nm. Assays were performed in triplicate on three independent experiments.

In the case of `O=C(CCCCCCC(=O)Nc1ccccc1)NO` [vorinostat, suberoylanilide hydroxamic acid, reference compound], the “indicators of apoptosis: upregulation of cleaved-PARP and cleaved-caspase 3, downregulation of Bcl-2” value [1] is reported as “only detected in vorinostat treated cells” and the “cell viability (MTT)” value [2] is reported as “markedly decreased cell viability”.
